Measured values as given in patent US4734409A, “Cephalosporin derivative, process for producing the same and pharmaceutical composition containing the same” (Kureha Kagaku Kogyo Kabushiki Kaisha, priority 1984, dated 1988).

What was measured:
[1] = tested on: Serratia marcescens IAM 1223; assay: Antibacterial activity, agar plate dilution method: S. marcescens IAM 1223; type: cell-based; conditions: Mueller-Hinton agar, 10^6 cells/ml, 37° C., 18 to 24 hours
Description: Antibacterial activity of the present compound was examined by agar plate dilution method while following the standard method of Japan Society of Chemotherapy and using the following strain: 6. Serratia marcescens IAM 1223 Namely, after inoculating each bacteria on Mueller-Hinton culture medium, the inoculum was incubated for 18 to 48 hours at 37° C. and after adjusting the number of cells of each bacteria so as to contain 10^6 in one ml, the thus prepared specimen was used as the test bacterial liquid. Each of the present substances (the substance in Example 1 and the substance in Example 2) was dispersed in aqueous physiological saline solution at a predetermined concentration and the thus prepared dispersion was added to 9 times by volume of the culture medium for examining sensitivity (Mueller-Hinton culture medium) to prepare agar plates. On each agar plate, each of the test bacterial liquid was smeared at a width of about 2 cm, and the thus smeared agar plate was incubated for 18 to 24 hours at 37° C.

[2] = tested on: bacteria (strains of Table 3); assay: Antibacterial activity, agar plate dilution method, overall; type: cell-based; conditions: as seen from Table 3
Description: Antibacterial activity of the present compound was examined by agar plate dilution method while following the standard method of Japan Society of Chemotherapy and using the following strain:
2. Staphylococcus aureus IAM 1011
3. Escherichia coli W 3636
4. Proteus vulgaris IAM 1025
5. Pseudomonas aeruginosa IAM 1514
6. Serratia marcescens IAM 1223
Namely, after inoculating each bacteria on Mueller-Hinton culture medium, the inoculum was incubated for 18 to 48 hours at 37° C. and after adjusting the number of cells of each bacteria so as to contain 10^6 in one ml, the thus prepared specimen was used as the test bacterial liquid.
Each of the present substances (the substance in Example 1 and the substance in Example 2) was dispersed in aqueous physiological saline solution at a predetermined concentration and the thus prepared dispersion was added to 9 times by volume of the culture medium for examining sensitivity (Mueller-Hinton culture medium) to prepare agar plates.
On each agar plate, each of the test bacterial liquid was smeared at a width of about 2 cm, and the thus smeared agar plate was incubated for 18 to 24 hours at 37° C.

in vitro = in vitro ADME, Staphylococcus aureus; conditions: rat, s9
Description: (§1) As a model experiment for verifying the stability of the present compound in Example 1 in the living body, the following procedures were adopted. The same test solution of the present compound as in Example 6 was prepared by mixing 0.1 ml of the dispersion of the present compound and 0.9 ml of S-9 mix, and shaking the mixture for 20 min at 37° C. As a control, a mixture of 0.1 ml of the dispersion of the present compound and 0.9 ml of the 0.2M phosphoric acid buffer was shaken for 20 min at 37° C. As the test bacteria, Staphylococcus aureus IAM 1011 was inoculated in Mueller-Hinton culture medium, and after incubating the inoculum for 18 hours at 37° C., the number of bacteria in the medium was adjusted to 10^8 /ml and the thus adjusted, cultured medium was mixed with 50 times by volume of Mueller-Hinton culture medium. After preparing an agar plate from the mixture, a penicillin cup of 8 mm in diameter was placed on the agar plate, and 0.1 ml of the test solution prepared above was put into the cup. After leaving the thus prepared agar plate for 2 hours at 4° C., the agar plate was subjected to culture for 18 hours at 37° C. to measure the diameter of a proliferation-inhibiting circle appearing on the agar plate. From a calibration curve preliminarily prepared between the concentration of the present compound and the diameter of the proliferation-inhibiting circle, the concentration of the present compound in the test solution and the control was obtained. By using the thus obtained concentration, the rate of retaining the antibacterial activity (Rate (%)) was calculated from the following formula and is shown in Table 5. [formula] As a comparative experiment, the same precedures were carried out except for using Cefotax (a commercialized cephalosporin derivative sold by CHUGAI Pharmaceuticla Co., Ltd., which is represented by the following formula), [drawing 21] instead of the present compound produced in Example 1.

[3] = tested on: Staphylococcus aureus IAM 1011; assay: in vitro; type: in vitro ADME
Description: as §1

[4] = tested on: Escherichia coli IFO 12734; assay: Therapeutic effect on the experimental infectious disease on mice; type: in vivo, Escherichia coli (infected ddY-SPF mice)
From the text: Therapeutic effect of the present compounds on the infection was examined as follows.

Escherichia coli = assay: Effect on the intestinal bacterial colonies: E. coli in feces; type: in vivo, Escherichia coli (feces of female ICR-JCL mice); conditions: after administration; 100 mg/kg orally once a day, 2 days; before administration 6.4
Description: (§2) Effect of the present compound on the intestinal bacterial colonies was examined as follows.
(§3) The present compound prepared in Example 2 was orally administered to each of 5 animals of a group of female ICR-JCL mice of 6-weeks-old at a daily dosage of 100 mg/kg once a day for continuous 2 days. Feces of each of the mice were collected before and after one day of the administration, and after diluting thereof with 100 times by weight of an anaerobic diluent (an aqueous phosphoric acid buffer) the thus diluted feces were ground, and 0.1 ml of the thus ground and diluted feces was smeared on each culture medium for each bacterial species (shown in Table 1).
(§4) After incubating the thus prepared culture media at 25° C. for one to five days aerobically in the cases of Escherichia coli, Pseudomonas aeruginosa and the Streptococcus species or anaerobically in the cases of the Lactobacillus acidophilus, Lactobacillus bifidus and the Bacterioides species, the number of each bacteria proliferating on the culture medium was counted.
DHL aerobic, 37° C., one day

Pseudomonas aeruginosa = assay: Effect on the intestinal bacterial colonies: P. aeruginosa in feces; type: in vivo, Pseudomonas aeruginosa (feces of female ICR-JCL mice); conditions: after administration; 100 mg/kg orally once a day, 2 days; before administration <3.0
Description: as §2, §3, §4
(2) Pseudomonas aeruginosa

Streptococcus sp. = assay: Effect on the intestinal bacterial colonies: Streptococcus sp. in feces; type: in vivo, Streptococcus sp. (feces of female ICR-JCL mice); conditions: after administration; 100 mg/kg orally once a day, 2 days; before administration 6.8
Description: as §2, §3, §4
TATAC the same as above

[5] = tested on: Lactobacillus acidophilus; assay: Effect on the intestinal bacterial colonies: L. acidophilus in feces; type: in vivo, Lactobacillus acidophilus (feces of female ICR-JCL mice); conditions: after administration; 100 mg/kg orally once a day, 2 days; before administration 9.0
Description: as §2, §3, §4
(4) Lactobacillus acidophilus
LBS anaerobic, 37° C., 5 days

Lactobacillus bifidus = assay: Effect on the intestinal bacterial colonies: L. bifidus in feces; type: in vivo, Lactobacillus bifidus (feces of female ICR-JCL mice); conditions: after administration; 100 mg/kg orally once a day, 2 days; before administration 8.5
Description: as §2, §3, §4
(5) Lactobacillus bifidus

Bacteroides sp. = assay: Effect on the intestinal bacterial colonies: Bacteroides sp. in feces; type: in vivo, Bacteroides sp. (feces of female ICR-JCL mice); conditions: after administration; 100 mg/kg orally once a day, 2 days; before administration 8.3
Description: as §2, §3, §4

SMILES | minimal inhibitory concentration (MIC), S. marcescens IAM 1223 [1] | antibacterial activity (in words) [2] | remaining at 20 min (in vitro) [%] | Rate of retaining the antibacterial activity (in words) [3] | survival 7 days after inoculation ([4]; intravenous administration, dose not given) | Logarithmic value of the number of bacterial cells per one gram of feces, (1) E. coli (Escherichia coli) | Logarithmic value of the number of bacterial cells per one gram of feces, (2) P. aeruginosa (Pseudomonas aeruginosa) | Logarithmic value of the number of bacterial cells per one gram of feces, (3) Streptococcus sp. (Streptococcus sp.) | Logarithmic value of the number of bacterial cells per one gram of feces, (4) L. acidophilus [5] | Logarithmic value of the number of bacterial cells per one gram of feces, (5) L. bifidus (Lactobacillus bifidus) | Logarithmic value of the number of bacterial cells per one gram of feces, (6) Bacteroides sp. (Bacteroides sp.) | survival 7 days after inoculation ([4]; 25 mg/kg orally, 1 time, 1 hour after intraperitoneal inoculation of 1.4×10^3 cells, all untreated mice died on the second day)
CO/N=C(\C(=O)N[C@@H]1C(=O)N2C(C(=O)O)=C(CSc3nnc(C)s3)CS[C@H]12)c1csc(NC(=O)C(Cl)Cl)n1 [Example 1, 7β-[2-(2-dichloroacetamido-4-thiazolyl)-(Z)-2-methoxyiminoacetamido]-3-[(2-methyl-1,3,4-thiadiazol-5-yl)thiomethyl]-3-cephem-4-carboxylic acid] | 0.4 | shows an antibacterial activity | 90 | superior to a conventional commerciallized cephalosporin derivative | All the ddY-SPF mice administered with the present compound produced in Example 1 via intravenation survived |  |  |  |  |  |  | 
CO/N=C(\C(=O)N[C@@H]1C(=O)N2C(C(=O)OCOC(=O)C(C)(C)C)=C(CSc3nnc(C)s3)CS[C@H]12)c1csc(NC(=O)C(Cl)Cl)n1 [Example 2] | ≥ 100 | shows a low antibacterial activity |  | the same result as that obtained in using the present compound produced in Example 1 |  | 6.4 Logarithmic value of the number of bacterial cells per one gram of feces | < 3.0 Logarithmic value of the number of bacterial cells per one gram of feces | 7.0 Logarithmic value of the number of bacterial cells per one gram of feces | 8.9 Logarithmic value of the number of bacterial cells per one gram of feces | 8.5 Logarithmic value of the number of bacterial cells per one gram of feces | 8.2 Logarithmic value of the number of bacterial cells per one gram of feces | all the mice administered with the present compound survived
